{"source": "ChEMBL document CHEMBL6115048", "about": "“Uncovering α-Selectivity for Liver X Receptor Agonists for Lipotoxic Cancer Therapies” (J Med Chem, 2025)", "key": {"[1]": {"target": "T1, Peroxisome proliferator-activated receptor gamma (Homo sapiens) (UniProt P37231)", "T1 sequence (whole entry)": "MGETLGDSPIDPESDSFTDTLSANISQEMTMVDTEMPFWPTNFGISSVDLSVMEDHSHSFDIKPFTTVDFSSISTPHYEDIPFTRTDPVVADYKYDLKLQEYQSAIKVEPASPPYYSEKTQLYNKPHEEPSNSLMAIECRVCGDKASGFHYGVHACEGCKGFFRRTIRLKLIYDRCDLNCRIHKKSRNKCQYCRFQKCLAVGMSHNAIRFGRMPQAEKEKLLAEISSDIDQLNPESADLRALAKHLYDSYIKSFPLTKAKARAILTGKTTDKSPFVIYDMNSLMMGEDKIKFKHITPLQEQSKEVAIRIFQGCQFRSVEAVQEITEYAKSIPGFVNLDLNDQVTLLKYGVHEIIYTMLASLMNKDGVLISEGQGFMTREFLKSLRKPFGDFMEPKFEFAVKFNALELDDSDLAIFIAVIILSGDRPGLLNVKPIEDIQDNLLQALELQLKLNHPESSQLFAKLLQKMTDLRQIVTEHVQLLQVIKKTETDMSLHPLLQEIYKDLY", "experiment": "Agonist activity at PPARgamma (unknown origin) transfected in human HepG2 cells co-transfected with renilla reniformis luciferase reporter at 10 uM incubated for 24 hrs by dual-luciferase reporter gene assay", "type": "cell-based"}, "[2]": {"target": "T2, Bile acid receptor (Homo sapiens) (UniProt Q96RI1)", "T2 sequence (whole entry)": "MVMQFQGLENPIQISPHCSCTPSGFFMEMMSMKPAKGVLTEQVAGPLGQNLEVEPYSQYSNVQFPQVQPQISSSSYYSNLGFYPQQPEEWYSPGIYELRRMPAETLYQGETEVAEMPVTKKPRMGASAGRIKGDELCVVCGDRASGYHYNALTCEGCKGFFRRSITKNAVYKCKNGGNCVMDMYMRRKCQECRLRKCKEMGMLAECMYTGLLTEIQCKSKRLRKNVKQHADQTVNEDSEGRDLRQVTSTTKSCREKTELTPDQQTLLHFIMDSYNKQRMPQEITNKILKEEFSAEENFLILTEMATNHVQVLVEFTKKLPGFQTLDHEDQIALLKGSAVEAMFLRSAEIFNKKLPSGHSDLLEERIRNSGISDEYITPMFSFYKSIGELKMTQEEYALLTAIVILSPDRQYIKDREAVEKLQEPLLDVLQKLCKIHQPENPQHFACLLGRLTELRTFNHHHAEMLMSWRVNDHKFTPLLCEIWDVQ", "experiment": "Agonist activity at FXR (unknown origin) transfected in human HepG2 cells co-transfected with renilla reniformis luciferase reporter at 10 uM incubated for 24 hrs by dual-luciferase reporter gene assay", "type": "cell-based"}, "[3]": {"target": "T3, Nuclear receptor subfamily 1 group I member 3 (Mus musculus, UniProt O35627)", "T3 sequence (O35627 whole entry)": "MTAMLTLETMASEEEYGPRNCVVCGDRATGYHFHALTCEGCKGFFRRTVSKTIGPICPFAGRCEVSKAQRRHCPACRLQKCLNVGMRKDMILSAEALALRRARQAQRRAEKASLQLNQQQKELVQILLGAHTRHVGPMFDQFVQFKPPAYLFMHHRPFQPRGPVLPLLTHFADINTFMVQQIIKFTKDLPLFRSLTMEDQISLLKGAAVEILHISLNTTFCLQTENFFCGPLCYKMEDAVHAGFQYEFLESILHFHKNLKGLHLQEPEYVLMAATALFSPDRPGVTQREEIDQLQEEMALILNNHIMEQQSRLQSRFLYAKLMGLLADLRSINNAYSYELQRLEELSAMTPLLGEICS", "experiment": "Agonist activity at mouse CAR transfected in human HepG2 cells co-transfected with p2B6-luciferase reporter at 10 uM incubated for 24 hrs by dual-luciferase reporter gene assay", "type": "cell-based", "conditions": "hepg2, 24 h"}, "Hep 3B2 [4]": {"tested_on": "Hep 3B2", "experiment": "Antiproliferative activity against human Hep3B cells assessed as reduction in cell viability measured after 5 days in presence of sorafenib by Celltiter-glo assay", "type": "functional, cell-based", "conditions": "120 h"}, "Hep 3B2 [5]": {"tested_on": "Hep 3B2", "experiment": "Antiproliferative activity against human Hep3B cells assessed as reduction in cell viability measured after 5 days by Celltiter-glo assay", "type": "functional, cell-based", "conditions": "time 5.0 day"}, "Hep 3B2 [6]": {"tested_on": "Hep 3B2", "experiment": "Induction of endoplasmic reticulum (ER) stress in human Hep3B cells assessed as increase in CHOP expression measured after 3 days in presence of sorafenib by Western blot analysis", "type": "functional, cell-based", "conditions": "time 3.0 day"}, "BNL CL.2": {"tested_on": "BNL CL.2", "experiment": "Cytotoxicity against mouse BNL CL.2 cells assessed as reduction in cell viability at 0.01 to 100 uM measured after 5 days in presence of sorafenib by CellTiter-Glo assay", "type": "toxicity, cell-based", "conditions": "bnl cl.2, 120 h, dose 0.01-100 µM, time 5 day"}, "[7]": {"tested_on": "Hepatocellular carcinoma organoid", "experiment": "Antiproliferative activity against C57BL/6 mouse Hepatocellular carcinoma organoids harboring myristoylated Akt1 and overexpressing Myc assessed as reduction in cell viability at 1 to 5 uM measured after 5 days in presence of sorafenib by Celltiter-glo assay", "type": "functional, tissue-based", "conditions": "Neoplasm, dose 1-5 µM, time 5.0 day"}, "Hep 3B2 [8]": {"tested_on": "Hep 3B2", "experiment": "Induction of oxidative stress in human Hep3B cells assessed as increase in SOD1 expression measured after 3 days in presence of sorafenib by Western blot analysis", "type": "functional, cell-based", "conditions": "time 3.0 day"}, "Hep 3B2 [9]": {"tested_on": "Hep 3B2", "experiment": "Induction of endoplasmic reticulum (ER) stress in human Hep3B cells assessed as increase in GADD34 expression measured after 3 days in presence of sorafenib by Western blot analysis", "type": "functional, cell-based", "conditions": "time 3.0 day"}}, "note": "pEC50: −log10 of the molar value. Activity calls are given as the source filed them. No cut-off for these calls is given here."}
{"smiles": "O=C1C(Nc2ccc(N3CCCCC3)cc2)=C(c2ccccc2)C(=O)N1Cc1ccccc1", "values": [{"measurement": "Activity", "setting": "[1]", "value": "inactive"}, {"measurement": "Activity", "setting": "[2]", "value": "inactive"}, {"measurement": "Activity", "setting": "[3]", "value": "Not_active"}, {"measurement": "pEC50", "setting": "Hep 3B2 [4]", "value": 5.77}, {"measurement": "Activity", "setting": "Hep 3B2 [5]", "value": "inactive"}, {"measurement": "Activity", "setting": "Hep 3B2 [6]", "value": "Active"}, {"measurement": "Activity", "setting": "BNL CL.2", "value": "Toxic"}, {"measurement": "Activity", "setting": "[7]", "value": "Active"}, {"measurement": "Activity", "setting": "Hep 3B2 [8]", "value": "Active"}, {"measurement": "Activity", "setting": "Hep 3B2 [9]", "value": "Active"}]}
